Laboratory results from EP0509470A2, “Therapeutical compositions having anti-HIV activity consisting of 2',3'-didesoxyadenosine and substances inhibiting adenosine deaminase” (REPLA CHEMICAL LTD., priority 1991, dated 1992).
Where two headings read alike, the source gives them in different places.

What was measured:
HIV-1 [1] = assay: Inhibition of infecting HIV production in MT4 cells (end point titration); format: cell-based; conditions: for EC90: read-out: ED90 (the source's name); for enhancement of the anti-HIV-1 activity of ddAdo (10 µM): compound used at its MNTD together with ddAdo 10 µM, Fig. 1
Protocol: (§1) The cellular lines utilized in this study were: H9, T lymphocytes, CD4+, permissive for the HIV replication but partially resistant to its cytopathic effect; • H9/IIIB, H9 lymphocytes chronically infected by HTLV/IIIB virus; • MT4 and C8166, T lymphocytes lines, CD4+ permissive for HIV replication. In C8166 the virus induces a cytopathic effect which results in the formation of syncytia easily visible at the optical microscope.
(§2) All the lymphoid lines were cultured in RPMI 1640 containing 10 % of non decomplemented fetal calf serum (FCS), penicillin 100U/mL and streptomycin 100 µg/mL and incubated at 37 °C in 5% CO₂.
(§3) HIV virus was obtained by H9/IIIB cells surnatant taken at the end of their exponential growth.
(§4) The titre of several stock preparations was comprised between 2 and 5 x 10⁵ Cell Culture Infection Dose 50 (CCID50)/mL.
(§5) For the evaluation of the anti-HIV activity the inhibition of infecting HIV production was determined as follows.
(§6) C8166 or MT4 cells sown at a density of 1 x 10⁶ cells/ml, were infected with a multiplicity of infection (m.o.i.) comprised between 0.05 and 0.02 CCID50/cell. After two hours of incubation at 37 °C and subsequent removal of the inoculum, the cells were washed three times and resuspended at a density of 1 x 10⁵ cells/ml. in the absence or in the presence of the compounds to be investigated.
(§7) After 4 days of incubation at 37 °C the presence of syncytia was evaluated at the optical microscope and the quantity of infecting HIV present in the surnatant of the cultures was determined by end point titration.
(§8) HIV titration was carried out in C8166 cells sown at a density of 1 x 10⁵ cells/mL/well, by the limit dilution method (dilution ratio 1:2, every dilution being sown in quadruplicate).
(§9) After four days of incubation, the syncytia presence was evaluated at the microscope and the viral titre was calculated by the Reed and Muench method.

[2] = Cytotoxicity evaluation (cell number in Coulter after 96 hours); format: cell-based; conditions: human
Protocol: as §1, §2
(§10) For the cytotoxicity evaluation, the cells were resuspended in a culture medium at a density of 1 x 10⁵/mL, were incubated in the absence or in the presence of various concentration of the compounds to be studied and their number was determined in Coulter after 96 hours of incubation at 37 °C.

HIV-1 [3] = assay: Inhibition of infecting HIV production in C8166 cells (end point titration); format: cell-based; conditions: for EC90: read-out: ED90 (the source's name)
Protocol: as §1, §2, §3, §4, §5, §6, §7, §8, §9

MT4 cells = assay: Cytotoxicity evaluation (cell number in Coulter after 96 hours); format: cell-based
Protocol: as §1, §2, §10

human T lymphocytes = conditions: G. Ahluwalia et al. 1987; cited from earlier work
C8166 cells = assay: Cytotoxicity evaluation (cell number in Coulter after 96 hours); format: cell-based; conditions: C8166 cells; concentrations up to 500 µM
Protocol: as §1, §2, §10

[4] = MT4 cells, compound alone, Table 2
[5] = C8166 cells, compound alone, Table 2
[6] = ddAdo alone (Coformycin absent), MT4, Table 4
[7] = ddAdo alone (desoxycoformycin absent), MT4, Table 5
[8] = ddAdo with Coformycin 0.02 (unit not given), MT4
[9] = ddAdo with Coformycin 0.06 (unit not given), MT4
[10] = ddAdo with Coformycin 0.2 (unit not given), MT4
[11] = ddAdo with Coformycin 0.5 (unit not given), MT4
[12] = ddAdo with Coformycin 1.6 (unit not given), MT4
[13] = ddAdo with Coformycin 5 (unit not given), MT4
[14] = ddAdo with Coformycin 15 (unit not given), MT4
[15] = ddAdo with Coformycin 45 (unit not given), MT4
[16] = ddAdo with desoxycoformycin 0.05 (unit not given), MT4
[17] = ddAdo with desoxycoformycin 0.5 (unit not given), MT4
[18] = ddAdo with desoxycoformycin 5 (unit not given), MT4
[19] = ddAdo with desoxycoformycin 50 (unit not given), MT4
[20] = c8166 cells, maxima non cytotoxic doses (MNTD)
[21] = mt4 cells, maxima non cytotoxic doses (MNTD)
[22] = ddAdo alone (EHNA absent), C8166, Table 3
[23] = MT4 cells, concentrations up to 500 µM

## CCCCCC[C@H]([C@H](C)O)n1cnc2c(N)ncnc21 (relative stereo) [EHNA, 9-(erythro-2-hydroxy-3-nonyl) adenine]
HIV-1 [1]; [4]
  EC90: > 10 µM
HIV-1 [1]; MT4 cells
  enhancement of the anti-HIV-1 activity of ddAdo (10 µM): highest enhancing effect
[2]; c8166 cells
  CC50 at 96 h: 25 µM
[2]; c8166 cells, MNTD
  MNTC at 96 h: 15 µM
[2]; mt4 cells
  CC50 at 96 h: 35 µM
[2]; mt4 cells, MNTD
  MNTC at 96 h: 10 µM
HIV-1 [3]; [5]
  EC90: > 15 µM
HIV-1 [3]; EHNA with ddAdo, C8166
  lowest concentration enhancing ddAdo anti-HIV activity, relative to its MNTD: 250 times lower

## CCCCCC[C@H]([C@H](C)O)n1cnc2c(N)nccc21 (relative stereo) [3-deaza-EHNA]
HIV-1 [1]; [4]
  EC90: > 10 µM
HIV-1 [1]; MT4 cells
  enhancement of the anti-HIV-1 activity of ddAdo (10 µM): highest enhancing effect
[2]; mt4 cells
  CC50 at 96 h: 30 µM
[2]; mt4 cells, MNTD
  MNTC at 96 h: 10 µM

## OC[C@H]1O[C@@H](n2cnc3c2N=CNC[C@H]3O)[C@H](O)[C@@H]1O [CF, coformycin]
HIV-1 [1]; CF with ddAdo, MT4
  lowest concentration enhancing ddAdo anti-HIV activity, relative to its MNTD: more than 12500 times lower
HIV-1 [1]; [4]
  EC90: > 250 µM
[2]; c8166 cells
  CC50 at 96 h: > 250 µM
[2]; c8166 cells, MNTD
  MNTC at 96 h: > 250 µM
[2]; mt4 cells
  CC50 at 96 h: > 250 µM
[2]; mt4 cells, MNTD
  MNTC at 96 h: > 250 µM
[2]; cell line not specified, read-out: cytotoxic concentration
  MCC at 96 h: 250 µM
HIV-1 [3]; [5]
  EC90: > 250 µM

## CCCCCC[C@H]([C@H](C)O)n1ccc2c(N)ncnc21 (relative stereo) [7-deaza-EHNA]
HIV-1 [1]; [4]
  EC90: > 5 µM
[2]; mt4 cells
  CC50 at 96 h: 50 µM
[2]; mt4 cells, MNTD
  MNTC at 96 h: 5 µM

## Nc1ncnc2c1ncn2[C@H]1CC[C@@H](CO)O1 [ddAdo, 2',3'-didesoxyadenosine]
HIV-1 [1]; [4]
  EC90: 10 µM
HIV-1 [1]; [6]
  ED99: 19.0 µM
  ED99.9: 32.0 µM
  EC90: 11 µM
HIV-1 [1]; [7]
  ED99: 14.3 µM
  ED99.9: 23.8 µM
  EC90: 4.8 µM
HIV-1 [1]; ddAdo with Coformycin 0.02 (unit inferred), MT4
  EC90: 4 µM
HIV-1 [1]; [8]
  ED99: 7.6 µM
  ED99.9: 13.7 µM
HIV-1 [1]; [9]
  ED99: 7.1 µM
  ED99.9: 12.5 µM
HIV-1 [1]; [10]
  ED99: 5.0 µM
  ED99.9: 8.0 µM
HIV-1 [1]; ddAdo with Coformycin 0.5 (unit inferred), MT4
  EC90: 3.6 µM
HIV-1 [1]; [11]
  ED99: 5.0 µM
  ED99.9: 8.0 µM
HIV-1 [1]; ddAdo with Coformycin 1.6 (unit inferred), MT4
  EC90: 2.5 µM
HIV-1 [1]; [12]
  ED99: 4.5 µM
  ED99.9: 7.5 µM
HIV-1 [1]; ddAdo with Coformycin 5 (unit inferred), MT4
  EC90: 2 µM
HIV-1 [1]; [13]
  ED99: 4.0 µM
  ED99.9: 7.5 µM
HIV-1 [1]; ddAdo with Coformycin 15 (unit inferred), MT4
  EC90: 1.5 µM
HIV-1 [1]; [14]
  ED99: 3.5 µM
  ED99.9: 7.5 µM
HIV-1 [1]; ddAdo with Coformycin 45 (unit inferred), MT4
  EC90: 1 µM
HIV-1 [1]; [15]
  ED99: 2.5 µM
  ED99.9: 7.0 µM
HIV-1 [1]; [16]
  ED99: 8.0 µM
  ED99.9: 14.4 µM
HIV-1 [1]; ddAdo with desoxycoformycin 0.5 (unit inferred), MT4
  EC90: 1.3 µM
HIV-1 [1]; [17]
  ED99: 7.8 µM
  ED99.9: 14.2 µM
HIV-1 [1]; ddAdo with desoxycoformycin 5 (unit inferred), MT4
  EC90: 1.1 µM
HIV-1 [1]; [18]
  ED99: 6.2 µM
  ED99.9: 11.2 µM
HIV-1 [1]; ddAdo with desoxycoformycin 50 (unit inferred), MT4
  EC90: 0.9 µM
HIV-1 [1]; [19]
  ED99: 3.8 µM
  ED99.9: 6.7 µM
[2]; c8166 cells
  CC50 at 96 h: > 1000 µM
[2]; c8166 cells, MNTD
  MNTC at 96 h: > 1000 µM
[2]; [20]
  MNTC at 96 h: ≥ 1000 µM
[2]; mt4 cells
  CC50 at 96 h: > 1000 µM
[2]; mt4 cells, MNTD
  MNTC at 96 h: > 1000 µM
[2]; [21]
  MNTC at 96 h: ≥ 1000 µM
[2]; mt4 cells, in association with 15 µM of EHNA, Fig. 2, read-out: MNTD of ddAdo
  MNTC at 96 h: 60 µM
[2]; mt4 cells, in association with 125 µM of CF, Fig. 3, read-out: MNTD of ddAdo
  MNTC at 96 h: 60 µM
MT4 cells; human, mt4 cells, 96 h
  MNTC: 1 mM
HIV-1 [3]; [5]
  EC90: 25 µM
HIV-1 [3]; [22]
  ED99: 39.0 µM
  ED99.9: 61.0 µM
HIV-1 [3]; ddAdo with EHNA 0.06 µM, C8166
  ED99: 30.5 µM
  ED99.9: 52.0 µM
  EC90: 10.5 µM
HIV-1 [3]; ddAdo with EHNA 0.2 µM, C8166
  ED99: 18.0 µM
  ED99.9: 42.5 µM
  EC90: 7.5 µM
HIV-1 [3]; ddAdo with EHNA 0.5 µM, C8166
  ED99: 14.5 µM
  ED99.9: 34.5 µM
  EC90: 6.5 µM
HIV-1 [3]; ddAdo with EHNA 1.6 µM, C8166
  ED99: 11.5 µM
  ED99.9: 25.5 µM
  EC90: 5 µM
HIV-1 [3]; ddAdo with EHNA 5 µM, C8166
  ED99: 10.0 µM
  ED99.9: 23.5 µM
  EC90: 3.5 µM
HIV-1 [3]; ddAdo with EHNA 15 µM, C8166
  ED99: 7.5 µM
  ED99.9: 17.5 µM
  EC90: 3 µM

## OC[C@@H]1CC[C@H](n2cnc3c(O)ncnc32)O1 [ddIno, 2',3'-didesoxy-inosine, reference compound]
HIV-1 [1]; [4]
  EC90: 11 µM
[2]; c8166 cells
  CC50 at 96 h: > 1000 µM
[2]; c8166 cells, MNTD
  MNTC at 96 h: > 1000 µM
[2]; [20]
  MNTC at 96 h: ≥ 1000 µM
[2]; mt4 cells
  CC50 at 96 h: > 1000 µM
[2]; mt4 cells, MNTD
  MNTC at 96 h: > 1000 µM
[2]; [21]
  MNTC at 96 h: ≥ 1000 µM
Human T lymphocytes
  entry into the cells, less efficient than that of ddAdo: 4-6 time
HIV-1 [3]; [5]
  EC90: 28 µM

## CCCCCC[C@H]([C@H](C)O)n1cnc2c(N)cccc21 (relative stereo) [1,3-dideaza-EHNA]
HIV-1 [1]; [4]
  EC90: > 5 µM
[2]; mt4 cells
  CC50 at 96 h: 15 µM
[2]; mt4 cells, MNTD
  MNTC at 96 h: 5 µM

## CCCCCC[C@H]([C@H](C)O)n1cnc2c(N)ccnc21 (relative stereo) [1-deaza-EHNA]
HIV-1 [1]; [4]
  EC90: 20 µM
[2]; mt4 cells
  CC50 at 96 h: 75 µM
[2]; mt4 cells, MNTD
  MNTC at 96 h: 20 µM

## OC[C@H]1O[C@@H](n2cnc3c2NC=NC[C@H]3O)C[C@@H]1O [dCF, desoxycoformycin]
HIV-1 [1]; [23]
  anti-HIV-1 activity: without any anti-HIV-1 activity
HIV-1 [1]; dCF with ddAdo, MT4
  lowest concentration enhancing ddAdo anti-HIV activity, relative to its MNTD: more than 10,000 times lower
MT4 cells; [23]
  toxicity: non toxic
C8166 cells
  toxicity: non toxic
HIV-1 [3]; C8166 cells, concentrations up to 500 µM
  anti-HIV-1 activity: without any anti-HIV-1 activity
